Measurements reported in PubChem BioAssay AID1963854 (Molecular Pharmacology Branch, DTP, NCI, 2024).

Test system: 186277-243-T-J2-PDC complex spheroid viability
Experiment: Anticancer human tumor 186277-243-T-J2-PDC patient-derived colon adenocarcinoma cell line growth inhibition [POLQ]
Settings: for IC50: curve of first compound; for viability, T/C: stronger effect = lower value
Method in brief: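 Patient-derived tumour cells were co-cultured with HUVEC and mesenchymal stem cells as multicellular spheroids at 37 °C. They were treated with POLQ inhibitors (novobiocin, ART-558, RP6685) alone or combined with other agents. Top concentrations were at or near clinical Cmax (otherwise 10 microM; SN-38 at 1 microM), decreasing in half-log steps.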
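Note: spheroids exposed to compounds for seven days.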
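Throughout, for viability, T/C: 100% = DMSO vehicle control viability.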

CC(=O)O[C@H]1C(=O)[C@@]2(C)[C@H]([C@H](OC(=O)c3ccccc3)[C@]3(O)C[C@H](OC(=O)[C@H](O)[C@@H](NC(=O)c4ccccc4)c4ccccc4)C(C)=C1C3(C)C)[C@]1(OC(C)=O)CO[C@@H]1C[C@@H]2O + Cc1cccc(N(C)C(=O)C2C(O)CCN2c2nc(C)cc(C(F)(F)F)c2C#N)c1
IC50 (second compound 0.0316 µM): < 0.00949 µM | IC50 (second compound 0.1 µM): < 0.00949 µM | IC50 (second compound 0.316 µM): < 0.00949 µM | IC50 (second compound 1 µM): < 0.00949 µM | IC50 (second compound 3.16 µM): < 0.00949 µM | IC50 (second compound 10 µM): < 0.00949 µM | viability, T/C (second compound 0.0316 µM, first compound 0.00949 µM): 37.5% | viability, T/C (second compound 0.0316 µM, first compound 0.03 µM): 10.3% | viability, T/C (second compound 0.0316 µM, first compound 0.0949 µM): 7.26% | viability, T/C (second compound 0.0316 µM, first compound 0.3 µM): 5.79% | viability, T/C (second compound 0.0316 µM, first compound 0.949 µM): 5.96% | viability, T/C (second compound 0.0316 µM, first compound 3 µM): 6.11% | viability, T/C (second compound 0.1 µM, first compound 0.00949 µM): 35% | viability, T/C (second compound 0.1 µM, first compound 0.03 µM): 10.9% | viability, T/C (second compound 0.1 µM, first compound 0.0949 µM): 7.5% | viability, T/C (second compound 0.1 µM, first compound 0.3 µM): 5.9% | viability, T/C (second compound 0.1 µM, first compound 0.949 µM): 5.52% | viability, T/C (second compound 0.1 µM, first compound 3 µM): 6.96% | viability, T/C (second compound 0.316 µM, first compound 0.00949 µM): 45.3% | viability, T/C (second compound 0.316 µM, first compound 0.03 µM): 10.2% | viability, T/C (second compound 0.316 µM, first compound 0.0949 µM): 6.71% | viability, T/C (second compound 0.316 µM, first compound 0.3 µM): 5.81% | viability, T/C (second compound 0.316 µM, first compound 0.949 µM): 5.53% | viability, T/C (second compound 0.316 µM, first compound 3 µM): 5.53% | viability, T/C (second compound 1 µM, first compound 0.00949 µM): 34.8% | viability, T/C (second compound 1 µM, first compound 0.03 µM): 12.4% | viability, T/C (second compound 1 µM, first compound 0.0949 µM): 6.22% | viability, T/C (second compound 1 µM, first compound 0.3 µM): 5.71% | viability, T/C (second compound 1 µM, first compound 0.949 µM): 5.47% | viability, T/C (second compound 1 µM, first compound 3 µM): 5.47% | viability, T/C (second compound 3.16 µM, first compound 0.00949 µM): 27.2% | viability, T/C (second compound 3.16 µM, first compound 0.03 µM): 10.5% | viability, T/C (second compound 3.16 µM, first compound 0.0949 µM): 6.13% | viability, T/C (second compound 3.16 µM, first compound 0.3 µM): 5.47% | viability, T/C (second compound 3.16 µM, first compound 0.949 µM): 5.6% | viability, T/C (second compound 3.16 µM, first compound 3 µM): 5.16% | viability, T/C (second compound 10 µM, first compound 0.00949 µM): 20.3% | viability, T/C (second compound 10 µM, first compound 0.03 µM): 6.86% | viability, T/C (second compound 10 µM, first compound 0.0949 µM): 5.75% | viability, T/C (second compound 10 µM, first compound 0.3 µM): 5.46% | viability, T/C (second compound 10 µM, first compound 0.949 µM): 5.93% | viability, T/C (second compound 10 µM, first compound 3 µM): 6.1%

CCCS(=O)(=O)Nc1ccc(F)c(C(=O)c2c[nH]c3ncc(-c4ccc(Cl)cc4)cc23)c1F + Nc1ccc(C#CCN(C(=O)Cc2ncc(C(F)(F)F)cc2C(F)(F)F)c2ccc(F)cc2)nn1
IC50 (second compound 0.0316 µM): > 10 µM | IC50 (second compound 0.1 µM): > 10 µM | IC50 (second compound 0.316 µM): > 10 µM | IC50 (second compound 1 µM): > 10 µM | IC50 (second compound 3.16 µM): > 10 µM | IC50 (second compound 10 µM): 9.97 µM | viability, T/C (second compound 0.0316 µM, first compound 0.0316 µM): 89.6% | viability, T/C (second compound 0.0316 µM, first compound 0.1 µM): 100% | viability, T/C (second compound 0.0316 µM, first compound 0.316 µM): 88.9% | viability, T/C (second compound 0.0316 µM, first compound 1 µM): 79.8% | viability, T/C (second compound 0.0316 µM, first compound 3.16 µM): 113% | viability, T/C (second compound 0.0316 µM, first compound 10 µM): 66.3% | viability, T/C (second compound 0.1 µM, first compound 0.0316 µM): 91.5% | viability, T/C (second compound 0.1 µM, first compound 0.1 µM): 87.7% | viability, T/C (second compound 0.1 µM, first compound 0.316 µM): 86.8% | viability, T/C (second compound 0.1 µM, first compound 1 µM): 82.9% | viability, T/C (second compound 0.1 µM, first compound 3.16 µM): 91.5% | viability, T/C (second compound 0.1 µM, first compound 10 µM): 60.9% | viability, T/C (second compound 0.316 µM, first compound 0.0316 µM): 89.7% | viability, T/C (second compound 0.316 µM, first compound 0.1 µM): 90.5% | viability, T/C (second compound 0.316 µM, first compound 0.316 µM): 89% | viability, T/C (second compound 0.316 µM, first compound 1 µM): 94.3% | viability, T/C (second compound 0.316 µM, first compound 3.16 µM): 85.8% | viability, T/C (second compound 0.316 µM, first compound 10 µM): 57.8% | viability, T/C (second compound 1 µM, first compound 0.0316 µM): 100% | viability, T/C (second compound 1 µM, first compound 0.1 µM): 91.2% | viability, T/C (second compound 1 µM, first compound 0.316 µM): 109% | viability, T/C (second compound 1 µM, first compound 1 µM): 94.4% | viability, T/C (second compound 1 µM, first compound 3.16 µM): 87.8% | viability, T/C (second compound 1 µM, first compound 10 µM): 62.8% | viability, T/C (second compound 3.16 µM, first compound 0.0316 µM): 120% | viability, T/C (second compound 3.16 µM, first compound 0.1 µM): 89.5% | viability, T/C (second compound 3.16 µM, first compound 0.316 µM): 85% | viability, T/C (second compound 3.16 µM, first compound 1 µM): 93.4% | viability, T/C (second compound 3.16 µM, first compound 3.16 µM): 88% | viability, T/C (second compound 3.16 µM, first compound 10 µM): 63.6% | viability, T/C (second compound 10 µM, first compound 0.0316 µM): 108% | viability, T/C (second compound 10 µM, first compound 0.1 µM): 97.7% | viability, T/C (second compound 10 µM, first compound 0.316 µM): 85.7% | viability, T/C (second compound 10 µM, first compound 1 µM): 95.9% | viability, T/C (second compound 10 µM, first compound 3.16 µM): 85.1% | viability, T/C (second compound 10 µM, first compound 10 µM): 48.8%
